This is an account of results in US7960377B2 (priority 2008, dated 2011).

Holding throughout (assay): cell-based
For experiment [1], the target named is human CB2 receptor (Homo sapiens, UniProt P34972). Type of experiment: cell-based.
The target of experiment [2] is human CB1 receptor (Homo sapiens, UniProt P21554).
Experiment [3] has as its target T1, rat CB2 receptor (Rattus norvegicus, UniProt Q9QZN9).
T1 sequence (Q9QZN9 1-360): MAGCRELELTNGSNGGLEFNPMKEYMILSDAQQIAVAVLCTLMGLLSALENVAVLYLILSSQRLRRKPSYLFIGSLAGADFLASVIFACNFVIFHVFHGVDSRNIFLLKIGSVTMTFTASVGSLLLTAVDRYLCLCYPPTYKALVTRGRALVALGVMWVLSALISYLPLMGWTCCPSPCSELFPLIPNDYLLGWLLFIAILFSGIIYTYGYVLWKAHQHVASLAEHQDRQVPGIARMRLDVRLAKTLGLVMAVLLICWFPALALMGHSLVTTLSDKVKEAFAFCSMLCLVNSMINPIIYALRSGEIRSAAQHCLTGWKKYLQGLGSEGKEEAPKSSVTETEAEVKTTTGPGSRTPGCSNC
The format is cell-based.

Setting [4] is: change in intracellular cAMP, CHO-K1 hCB2 cells, class AR, read-out: EC50 values for human CB2 receptor.

Like-named read-outs stand apart in the source and are kept apart here.

Chain of human CB1 receptor (P21554 whole entry): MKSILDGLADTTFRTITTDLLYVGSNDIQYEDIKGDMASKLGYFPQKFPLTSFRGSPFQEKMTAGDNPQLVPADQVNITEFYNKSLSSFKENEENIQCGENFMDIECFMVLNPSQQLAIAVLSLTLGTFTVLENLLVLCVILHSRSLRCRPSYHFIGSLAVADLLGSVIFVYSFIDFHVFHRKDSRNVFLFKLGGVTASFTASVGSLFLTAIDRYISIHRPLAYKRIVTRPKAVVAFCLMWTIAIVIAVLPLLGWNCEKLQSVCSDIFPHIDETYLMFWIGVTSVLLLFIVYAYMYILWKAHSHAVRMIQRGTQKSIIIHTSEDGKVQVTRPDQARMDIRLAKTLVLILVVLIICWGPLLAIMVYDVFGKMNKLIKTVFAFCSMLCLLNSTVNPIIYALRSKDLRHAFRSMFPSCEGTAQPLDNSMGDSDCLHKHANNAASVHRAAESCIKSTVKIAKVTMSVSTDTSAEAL
Chain of human CB2 receptor (P34972 whole entry): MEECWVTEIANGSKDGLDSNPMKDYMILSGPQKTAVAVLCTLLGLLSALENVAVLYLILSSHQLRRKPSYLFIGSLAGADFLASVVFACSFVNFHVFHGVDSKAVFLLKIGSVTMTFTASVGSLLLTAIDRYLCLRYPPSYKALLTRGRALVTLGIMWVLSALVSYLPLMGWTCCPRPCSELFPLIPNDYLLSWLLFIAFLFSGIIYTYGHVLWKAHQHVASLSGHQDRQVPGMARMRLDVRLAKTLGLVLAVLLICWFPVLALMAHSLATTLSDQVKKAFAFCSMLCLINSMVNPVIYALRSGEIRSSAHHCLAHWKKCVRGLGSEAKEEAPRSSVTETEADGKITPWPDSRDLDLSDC

`CCC(C)(C)NC(=O)c1cnc2c(c1)N(S(=O)(=O)N1CCC(c3ccccc3)CC1)CCO2` [Example 159, N-tert-pentyl-1-(4-phenylpiperidin-1-ylsulfonyl)-2,3-dihydro-1H-pyrido[2,3-b][1,4]oxazine-7-carboxamide]: the EC50 in experiment [1] and in experiment [2] was over 30 µM in each case.

For the compound `CC1(C)CNC(c2cnc3c(c2)N(S(=O)(=O)c2ccc(C(F)(F)F)cc2)CCO3)=N1` [Example 224, 7-(4,4-dimethyl-4,5-dihydro-1H-imidazol-2-yl)-1-(4-(trifluoromethyl)phenylsulfonyl)-2,3-dihydro-1H-pyrido[2,3-b][1,4]oxazine], the EC50 in experiment [1] (setting [4]) and in experiment [2] was over 30 µM in each case.

As to `CC(C)(C)NC(=O)c1cnc2c(c1)N(S(=O)(=O)c1ccc3ccccc3c1)CCO2` [Example 88, N-tert-butyl-1-(naphthalen-2-ylsulfonyl)-2,3-dihydro-1H-pyrido[2,3-b][1,4]oxazine-7-carboxamide], the EC50 in experiment [1] and in experiment [2] was over 30 µM in each case.

`Cc1cc(S(=O)(=O)N2CCOc3ncc(C(=O)NC(C)(C)C)cc32)c(C)s1` [Example 91, N-tert-butyl-1-(2,5-dimethylthiophen-3-ylsulfonyl)-2,3-dihydro-1H-pyrido[2,3-b][1,4]oxazine-7-carboxamide]: the EC50 in experiment [1] and in experiment [2] was over 30 µM throughout.

For `COCCCNC(=O)c1cnc2c(c1)N(S(=O)(=O)c1cccnc1)CCO2` [Example 19, N-(3-methoxypropyl)-1-(pyridin-3-ylsulfonyl)-2,3-dihydro-1H-pyrido[2,3-b][1,4]oxazine-7-carboxamide], the EC50 in experiment [1] (setting [4]) and in experiment [2] was over 30 µM throughout.

Regarding `Cc1cccc(CS(=O)(=O)N2CCOc3ncc(C(=O)NC(C)(C)C)cc32)c1` [Example 81, N-tert-butyl-1-(3-methylbenzylsulfonyl)-2,3-dihydro-1H-pyrido[2,3-b][1,4]oxazine-7-carboxamide], the EC50 in experiment [1] (setting [4]) and in experiment [2] was over 30 µM in each case.

As for `O=C(NC1CCCC1)c1noc(-c2cnc3c(c2)N(S(=O)(=O)c2ccc(F)cc2)CCO3)n1` [Example 213, N-cyclopentyl-5-(1-(4-fluorophenylsulfonyl)-2,3-dihydro-1H-pyrido[2,3-b][1,4]oxazin-7-yl)-1,2,4-oxadiazole-3-carboxamide], in experiment [1] (asterisk at the compound number), the “inverse agonist mark, human CB2 receptor” value is listed as 175, 178, 179, 181, 198, 204, 205, 213*, 214, 215, 216, 219, 220,.

Regarding `O=S(=O)(c1ccc(C(F)(F)F)cc1)N1CCOc2ncc(-c3ncc(-c4ccccc4)[nH]3)cc21` [Example 226, 7-(5-phenyl-1H-imidazol-2-yl)-1-(4-(trifluoromethyl)phenylsulfonyl)-2,3-dihydro-1H-pyrido[2,3-b][1,4]oxazine], the EC50 (as a rule, the midpoint of the concentration-response curve) in experiment [1] (setting [4]) is over 30 µM.

`CC(C)(CO)NC(=O)c1cnc2c(c1)N(S(=O)(=O)N1CCCCC1)CCO2` [Example 146, N-(1-hydroxy-2-methylpropan-2-yl)-1-(piperidin-1-ylsulfonyl)-2,3-dihydro-1H-pyrido[2,3-b][1,4]oxazine-7-carboxamide]: the EC50 is at most 0.03 µM in experiment [3] and over 30 µM in experiment [2].

`CC(C)(C)NC(=O)c1cnc2c(c1)N(S(=O)(=O)c1ccc(OC(F)(F)F)cc1)CCO2` [Example 48, N-tert-butyl-1-(4-(trifluoromethoxy)phenyl-sulfonyl)-2,3-dihydro-1H-pyrido[2,3-b][1,4]oxazine-7-carboxamide]: the EC50 in experiment [3] was at most 0.03 µM; in experiment [2], over 30 µM.

In turn, `CC(C)(CO)NC(=O)c1cnc2c(c1)N(S(=O)(=O)N1CC(F)(F)C1)CCO2` [Example 195, 1-(3,3-difluoroazetidin-1-ylsulfonyl)-N-(1-hydroxy-2-methylpropan-2-yl)-2,3-dihydro-1H-pyrido[2,3-b][1,4]oxazine-7-carboxamide] yielded a concentration giving a half-maximal response (EC50) in experiment [1] of over 30 µM.

Take `COc1ccc(S(=O)(=O)N2CCOc3ncc(C(=O)NCC(C)(C)O)cc32)cc1Cl` [Example 104]: the EC50 is at most 0.03 µM in experiment [3] and over 30 µM in experiment [2].

On to `CC(C)(C)CC(C)(C)NC(=O)c1cnc2c(c1)N(S(=O)(=O)c1ccc(C(F)(F)F)cc1)CCO2` [Example 65, 1-(4-(trifluoromethyl)-phenylsulfonyl)-N-(2,4,4-trimethylpentan-2-yl)-2,3-dihydro-1H-pyrido[2,3-b][1,4]oxazine-7-carboxamide], for which the EC50 in experiment [3] was at most 0.03 µM; in experiment [2], over 30 µM.

`COC(=O)[C@@H]1CCCCN1C(=O)c1cnc2c(c1)N(S(=O)(=O)c1ccc(C(F)(F)F)cc1)CCO2` [Example 68, (S)-methyl 1-(1-(4-(trifluoromethyl)phenylsulf-onyl)-2,3-dihydro-1H-pyrido[2,3-b][1,4]oxazine-7-carbonyl)piperidine-2-carboxylate]: the half-maximal effective concentration (EC50) in experiment [3] was at most 0.03 µM; in experiment [2], over 30 µM.

Take `O=C(NC1(CO)CCC1)c1cnc2c(c1)N(S(=O)(=O)c1ccc(Cl)c(Cl)c1)CCO2` [Example 209, 1-(3,4-dichlorophenylsulfonyl)-N-(1-(hydroxymethyl)cyclobutyl)-2,3-dihydro-1H-pyrido[2,3-b][1,4]oxazine-7-carboxamide]: the EC50 was at most 0.03 µM in experiment [3] and over 30 µM in experiment [2].

For the compound `COCCCNC(=O)c1cnc2c(c1)N(S(=O)(=O)c1ccc(F)cc1)CCO2` [Example 12], the EC50 in experiment [3] was at most 0.03 µM; in experiment [2], over 30 µM.

As to `COc1ccc(S(=O)(=O)N2CCOc3ncc(C(=O)NC(C)(C)CO)cc32)c(F)c1` [Example 103, 1-(2-fluoro-4-methoxyphenylsulfonyl)-N-(1-hydroxy-2-methylpropan-2-yl)-2,3-dihydro-1H-pyrido[2,3-b][1,4]oxazine-7-carboxamide], the 50% effective concentration (EC50) is at most 0.03 µM in experiment [3] and over 30 µM in experiment [2].

On to `CCC(CO)(CO)NC(=O)c1cnc2c(c1)N(S(=O)(=O)c1ccc(C(F)(F)F)cc1)CCO2` [Example 64, N-(1-hydroxy-2-(hydroxymethyl)butan-2-yl)-1-(4-(trifluoromethyl)phenylsulf-onyl)-2,3-dihydro-1H-pyrido[2,3-b][1,4]oxazine-7-carboxamide], for which the figures for the EC50 in experiment [3] and in experiment [2] were at most 0.03 µM and over 30 µM, respectively.

`O=C(NCc1ccccc1)c1cnc2c(c1)N(S(=O)(=O)c1ccc(Cl)c(Cl)c1)CCO2` [Example 138, N-benzyl-1-(3,4-dichlorophenylsulfonyl)-2,3-dihydro-1H-pyrido[2,3-b][1,4]oxazine-7-carboxamide]: the 50% effective concentration (EC50) in experiment [3] was at most 0.03 µM; in experiment [2] it was over 30 µM.

For `Cc1csc(S(=O)(=O)N2CCOc3ncc(C(=O)NC(C)(C)C)cc32)c1` [Example 92, N-tert-butyl-1-(4-methylthiophen-2-ylsulfonyl)-2,3-dihydro-1H-pyrido[2,3-b][1,4]oxazine-7-carboxamide], the EC50 in experiment [3] is at most 0.03 µM; in experiment [2], over 30 µM.

As to `O=C(N[C@@H]1CCC[C@H]1O)c1cnc2c(c1)N(S(=O)(=O)c1ccc(Cl)c(Cl)c1)CCO2` [Example 133, 1-(3,4-dichlorophenyl-sulfonyl)-N-((1R,2R)-2-hydroxycyclopentyl)-2,3-dihydro-1H-pyrido[2,3-b][1,4]oxazine-7-carboxamide], the EC50 was at most 0.03 µM in experiment [3] and over 30 µM in experiment [2].

Turning to `CN(C(=O)c1cnc2c(c1)N(S(=O)(=O)c1ccc(C(F)(F)F)cc1)CCO2)C(C)(C)C` [Example 40, N-tert-butyl-N-methyl-1-(4-(trifluoromethyl)-phenylsulfonyl)-2,3-dihydro-1H-pyrido[2,3-b][1,4]oxazine-7-carboxamide], the EC50 was at most 0.03 µM in experiment [3] and over 30 µM in experiment [2].
